Where a name gives a salt, the structure may show the parent alone. Read-outs that look alike come from different tables or passages of the source.
Experiments:
[1] = molecular target: T1, cyclooxygenase derived from rat basophilic leukemia (RBL-1) cells (Rattus norvegicus, UniProt Q63921); assay: % inhibition of formation of cyclooxygenase product prostaglandin D2 (C1) in RBL-1 microsomal homogenate; assay type: biochemical; design: inhibition: dose or concentration left out as unconfirmed; details: read-out: % Inhibition in vitro, C1 (prostaglandin D2)
T1 construct: Single cell suspensions of RBL-1 cells are homogenized to obtain the microsomal fraction containing lipoxygenase and cyclooxygenase; endogenous in cells; host or cells: RBL-1 (rat basophilic leukemia) cells, homogenate/microsomal fraction
T1 sequence (Q63921 27-602): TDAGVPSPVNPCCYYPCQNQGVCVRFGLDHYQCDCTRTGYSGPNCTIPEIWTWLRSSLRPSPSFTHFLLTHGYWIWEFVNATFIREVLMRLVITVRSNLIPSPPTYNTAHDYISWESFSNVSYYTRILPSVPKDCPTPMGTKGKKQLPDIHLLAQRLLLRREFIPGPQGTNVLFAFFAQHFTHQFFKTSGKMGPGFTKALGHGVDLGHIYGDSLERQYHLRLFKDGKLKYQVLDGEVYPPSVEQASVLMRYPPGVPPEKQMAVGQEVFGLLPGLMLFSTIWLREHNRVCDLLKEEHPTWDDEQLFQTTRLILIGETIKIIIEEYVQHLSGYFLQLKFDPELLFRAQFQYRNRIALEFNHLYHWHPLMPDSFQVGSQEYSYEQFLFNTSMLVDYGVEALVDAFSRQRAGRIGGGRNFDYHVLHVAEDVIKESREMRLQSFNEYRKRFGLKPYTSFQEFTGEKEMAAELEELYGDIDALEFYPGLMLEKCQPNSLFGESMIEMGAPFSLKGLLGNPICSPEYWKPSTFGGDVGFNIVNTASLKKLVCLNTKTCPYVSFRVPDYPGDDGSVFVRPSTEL
Procedure: (§1) The primary screening test used is a determination of the inhibition of lipoxygenase and cyclooxygenase derived from rat basophilic leukemia (RBL-1) cells. The test was carried out according to the following procedure:
(§2) Single cell suspensions of RBL-1 cells are homogenized to obtain the microsomal fraction containing lipoxygenase and cyclooxygenase. Test compounds are added to the enzyme-containing homogenate for a 5 min. preincubation period at 37° C. prior to the addition of ^14 C-arachidonic acid substrate. Following incubation at 37° C. for 15 min., the reaction is stopped by the addition of 2M formic acid and the enzyme-substrate products are extracted into chloroform. An aliquot of the extract is evaporated to dryness, reconstituted in ether to 1/10 original volume, spotted on thin layer chromatography plates and chromatographed. The peak areas of radioactivity representing the products are located by scanning the plates. The quantity of products formed is estimated by measuring the height of the radioactivity peaks observed on the chromatographic scans. Alternatively, the areas of radioactivity are scraped from the plate and the ^14 C quantitated by scintillation counting. The percent inhibition in the formation of the cyclooxygenase product prostaglandin D2, designated as C1, and lipoxygenase products 5,12-di-HETE and 5-HETE, designated L1 and L2 respectively, are shown. Compounds with >50% inhibition of L1 and L2 at a screening concentration of 1 μM are considered active.

[2] = molecular target: T2, lipoxygenase derived from rat basophilic leukemia (RBL-1) cells (Rattus norvegicus, UniProt P12527); assay: % inhibition of formation of lipoxygenase products 5,12-di-HETE (L1) and 5-HETE (L2) in RBL-1 microsomal homogenate; assay type: biochemical; design: inhibition: dose or concentration left out as unconfirmed
T2 construct: Single cell suspensions of RBL-1 cells are homogenized to obtain the microsomal fraction containing lipoxygenase and cyclooxygenase; endogenous in cells; host or cells: RBL-1 (rat basophilic leukemia) cells, homogenate/microsomal fraction
T2 sequence (P12527 1-673): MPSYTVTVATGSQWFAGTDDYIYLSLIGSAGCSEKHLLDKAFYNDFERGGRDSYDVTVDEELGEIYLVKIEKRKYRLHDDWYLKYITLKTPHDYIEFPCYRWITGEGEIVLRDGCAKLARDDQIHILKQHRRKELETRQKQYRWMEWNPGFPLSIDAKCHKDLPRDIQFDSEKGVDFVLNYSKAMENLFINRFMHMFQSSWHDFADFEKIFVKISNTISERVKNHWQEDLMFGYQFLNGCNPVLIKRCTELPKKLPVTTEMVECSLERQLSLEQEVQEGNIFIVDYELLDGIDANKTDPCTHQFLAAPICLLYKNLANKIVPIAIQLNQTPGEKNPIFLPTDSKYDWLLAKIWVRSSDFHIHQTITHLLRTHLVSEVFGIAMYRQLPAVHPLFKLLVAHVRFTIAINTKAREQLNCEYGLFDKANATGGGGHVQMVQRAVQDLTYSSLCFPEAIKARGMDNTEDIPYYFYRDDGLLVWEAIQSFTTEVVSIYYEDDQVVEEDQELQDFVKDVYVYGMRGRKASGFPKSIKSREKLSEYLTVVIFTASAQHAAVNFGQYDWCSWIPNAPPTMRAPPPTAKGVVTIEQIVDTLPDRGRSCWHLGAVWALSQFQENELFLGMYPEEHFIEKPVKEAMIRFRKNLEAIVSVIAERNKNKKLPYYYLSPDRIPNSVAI
Procedure: as §1, §2

[3] = tested on: SRS-A component of immunologically induced bronchoconstriction; assay: effect on the SRS-A component of immunologically induced bronchoconstriction in guinea pigs; assay type: in vivo; details: guinea pig
Procedure: The test was carried out according to the following procedure: Outbred female guinea pigs were sensitized to egg albumin by a 1 mL ip injection of a 1 mg/mL egg albumin alum suspension. Twelve to sixteen days after immunization, the animals were used for the test. They were anesthetized with urethane (1.5 gm/kg ip) and surgically prepared with a jugular vein canula connected to a three-way stopcock for administration of drugs and antigen challenge. The trachea was cannulated and the animal artifically respired. The intratracheal pressure was continuously recorded and expressed in mm Hg. Naproxen sodium (10 mg/kg) and pyrilamine maleate (0.3 mg/kg) in phosphate buffered saline, pH 7.2, were administered intravenously in a single solution seven minutes prior to antigen challenge. Propranolol (0.1 mg/kg) was also given iv three minutes prior to challenge with egg albumin (300 μg/kg iv). The animals were dosed orally with compounds in water or in a vehicle of 3% corn starch, 5% polyethylene glycol 400, and 0.34% Tween 8™ in water at one or four hours before challenge. Results were recorded as the maximum increase in intratracheal pressure following antigen challenge. Activity of the compounds was measured as percent inhibition of the mean peak intratracheal pressure in the group of dosed animals in comparison to the mean peak intratracheal pressure in the group of vehicle treated animals. The results are expressed in terms of % inhibition.

[4] = read-out: % Inhibition in vitro, L1 (5,12-di-HETE)
[5] = read-out: % Inhibition in vitro, L2 (5-HETE)
[6] = 100 mg/kg p.o., at 1 hour before challenge
[7] = 100 mg/kg p.o., at 4 hours before challenge
[8] = 0.25 h, line carries a superscript without letter (probably footnote a, 0.1 μM)
[9] = 0.25 h, line carries a superscript without letter (probably footnote a, 0.1 μM), read-out: % Inhibition in vitro, L1 (5,12-di-HETE)
[10] = 0.25 h, line carries a superscript without letter (probably footnote a, 0.1 μM), read-out: % Inhibition in vitro, L2 (5-HETE)

SMILES | % Inhibition in vivo (mean peak intratracheal pressure) [3, 6] [%] | % Inhibition in vivo (mean peak intratracheal pressure) [3, 7] [%] | inhibition [1] [%] | inhibition [2, 5] [%] | inhibition at 1 µM [1, 8] [%] | inhibition at 1 µM [2, 9] [%] | inhibition at 1 µM [2, 10] [%] | further results
N#CCCCCCCNc1ccc(O)cc1 [Example 2d, 7-[(4-Hydroxyphenyl)amino]heptanenitrile] | 66 | 61 |  |  |  |  |  | inhibition at 1 µM [1]: 42%; inhibition at 1 µM [2, 4]: 92%; inhibition at 1 µM [2, 5]: 98%
N#CCCCCCCNc1cc(Cl)c(O)c(Cl)c1 [Example 9c, 7-[(3,5-Dichloro-4-hydroxyphenyl)amino]heptanenitrile monohydrochloride] |  |  | 9 | 95 |  |  |  | 
CC(=O)Oc1ccc(N(C)CCCCCCC#N)cc1 [Example 6d, 7-[[4-(Acetyloxy)phenyl]methylamino]heptanenitrile] |  |  | 14 | 85 |  |  |  | inhibition [2, 4]: 91%
Cc1cc(NCCCCCCC#N)ccc1O [Example 8c, 7-[(4-Hydroxy-3-methylphenyl)amino]heptanenitrile monohydrochloride] |  |  |  |  | 13 | 100 | 100 | 
CN(CCCCCCC#N)c1ccc(O)cc1 [Example 6c] | 6 |  |  |  | 28 | 100 | 100 | 
Cl.N#CCCCCCCNc1ccc(O)cc1F [Example 11c, 7-[(2-Fluoro-4-hydroxyphenyl)amino]heptanenitrile monohydrochloride] | 7 | 30 | 22 | 93 |  |  |  | inhibition [2, 4]: 86%
N#CCCCCCCCCNc1ccc(O)cc1.O=C(O)/C=C\C(=O)O [Example 5c, 9-[(4-Hydroxyphenyl)amino]nonanenitrile (Z)-2-butenedioate] | 0 | 25 | 0 | 95 |  |  |  | inhibition [2, 4]: 82%
Cc1cc(O)ccc1NCCCCCCC#N.Cl [Example 7c, 7-[(4-Hydroxy-2-methylphenyl)amino]heptanenitrile monohydrochloride] |  |  | 0 | 65 |  |  |  | % Inhibition in vivo (mean peak intratracheal pressure) ([3]; 300 mg/kg p.o. (footnote b), at 1 hour before challenge): 66%; % Inhibition in vivo (mean peak intratracheal pressure) ([3]; 300 mg/kg p.o. (footnote b), at 4 hours before challenge): 86%
N#CCCCCCCCNc1ccc(O)cc1.O=C(O)/C=C\C(=O)O [Example 4c, 8-[(4-Hydroxyphenyl)amino]octanenitrile (Z)-2-butenedioate] | 17 | 76 |  |  | 0 | 100 | 100 | 
N#CCCCCNc1ccc(O)cc1 [Example 1c, 5-[(4-Hydroxyphenyl)amino]pentanenitrile] |  |  |  |  | 0 | 100 | 100 | 
N#CCCCCCCNc1ccc(O)c(CO)c1 [Example 10c, 7-[[4-Hydroxy-3-(hydroxymethyl)phenyl]amino]heptanenitrile monohydrochloride] |  |  |  |  | 10 | 100 | 100 | 
Cl.N#CCCCCCCNc1ccccc1O [Example 3c, 7-[(2-Hydroxyphenyl)amino]heptanenitrile monohydrochloride] | 4 | 11 | 0 | 100 |  |  |  | 

— patent US4835180A, “N-(ω-cyanoalkyl)aminophenols and use as inhibitors of lipoxygenase activity” (Sterling Drug Inc., priority 1986, dated 1989)
